One assay concerns U937. As to the kind of experiment: Cell proliferation MTT assay. The conditions noted are these: Homo sapiens, U-937, 72 h, wild-type FLT3, read-out: Human leukemia cell line IC50 U937. The assay is classed as cell-based. How it is done:
(§1) The conditional medium (CM) was prepared from the supernatant of HS-5 cell culture for 5 days under normal culture conditions. At the indicated time point, cell viability was evaluated by MTT assay.

A further assay has as its system MOLM13. In words: Cell proliferation MTT assay. Type of assay: cell-based. As to conditions: Homo sapiens, MOLM-13, 72 h, read-out: Human leukemia cell line IC50 MOLM13. The procedure:
as §1

The next assay relates to MV4-11. In words: Cell proliferation MTT assay. The assay is classed as cell-based. As to conditions: Homo sapiens, 72 h, read-out: Human leukemia cell line IC50 MV4-11. How it is done:
as §1

The next assay concerns THP-1. As to the kind of experiment: Cell proliferation MTT assay. The assay is classed as cell-based. The conditions noted are these: Homo sapiens, 72 h, wild-type FLT3, read-out: Human leukemia cell line IC50 THP-1. How it is done:
as §1

The next assay addresses T1, ERK2/MAPK1 (Homo sapiens, UniProt P28482).
T1 construct: purchased Reaction Biology Corporation (PA, USA)
In words: Kinase inhibition assay (Reaction Biology). Type of assay: biochemical.

The subject of assay [1] is BaF3 cells transfected with FLT3-ITD-N676D and FLT3-ITD-F691L. In words: Subcutaneous xenograft with transfected BaF3 cells. The assay is classed as in vivo, BALB/c nude mice. The conditions noted are these: 10 mg/kg every other day for 16 days. How it is done:
Data were shown as mean±SD. […] Data were shown as mean±SD. (C) An engrafted tumor model was used to evaluate in vivo antitumor activity. The NOD/SCID mice were intravenously inoculated with MV4-11 cells. […] Log-rank testing was used to compare survival curves among treatment groups. […] (D) Apoptotic assays in engraft model were evaluated by TUNEL assay and cell proliferative activity was measured by Ki67 assay. Images were acquired at ×40 magnification. (E) BALB/c nude mice were subcutaneously inoculated with MV4-11 cells (5×10^6) and bodyweight of each mouse was recorded every other day. (F) Representative photo of tumors from BALB/c nude mice which were inoculated with MV4-11 cells. (G) BALB/c nude mice were subcutaneously inoculated with BaF3 cells bearing FLT3-ITD-N676D (n=6) and FLT3-ITD-F691L (n=6) respectively. […] (H) BALB/c mice were intravenously inoculated with cells used in (G). […] Log-rank testing was used to compare survival curves among treatment groups. […] (I) Representative photos of spleens dissected from mice in (H) inoculated with BaF3 cells bearing FLT-3-ITD-F691L.
Cells were injected into the tail vein of BALB/c nude mice and allowed to engraft for 5 days. […] This schedule was repeated for 8 cycles.

Assay [2] deals with AML patient blasts expressing FLT3-ITD. As to the kind of experiment: Viability of AML patient blasts (MTT). The assay is classed as cell-based, human. As to conditions: 72 h, compared with AC220 and sorafenib.
Another assay concerns the target T2, JAK3 (Homo sapiens, UniProt P52333).
T2 construct: purchased Reaction Biology Corporation (PA, USA)
In words: Kinase inhibition assay (Reaction Biology). Type of assay: biochemical.

In another assay the target is T3, FMS (Homo sapiens, UniProt P07333).
T3 construct: purchased Reaction Biology Corporation (PA, USA)
In words: Kinase inhibition assay (Reaction Biology). The assay is classed as biochemical.

For a further assay, the target named is T4, FLT4/VEGFR3 (Homo sapiens, UniProt P35916).
T4 construct: purchased Reaction Biology Corporation (PA, USA)
In words: Kinase inhibition assay (Reaction Biology). The assay is classed as biochemical.

Another assay deals with BaF3 cells with FLT3-ITD. As to the kind of experiment: Cell viability of transformed BaF3 cells. The assay is classed as cell-based, murine. As to conditions: Mus musculus, read-out: BaF3 cells with FLT3 mutants IC50 ITD. The procedure:
(§2) Lentivirus packaging and construction of transformed BaF3 cells were performed as described previously. […] Supernatants were collected and used to infect BaF3 cells, and transduced BaF3 cells were selected with puromycin (1 μg/ml) to obtain stably transformed cells.
as §1

Assay [3] deals with BaF3 cells with FLT3-ITD/N676D. As to the kind of experiment: Cell viability of transformed BaF3 cells. Type of assay: cell-based, murine. The conditions noted are these: Mus musculus, read-out: BaF3 cells with FLT3 mutants IC50 ITD-N676D. The procedure: as §2, §1
For assay [4], the system named is BaF3 cells with FLT3-ITD/F691L. In words: Cell viability of transformed BaF3 cells. The assay is classed as cell-based, murine. The conditions noted are these: Mus musculus, read-out: BaF3 cells with FLT3 mutants IC50 ITD-F691L. How it is done:
as §2, §1

Assay [5] relates to BaF3 cells with FLT3-ITD/Y842C. As to the kind of experiment: Cell viability of transformed BaF3 cells. Type of assay: cell-based, murine. The conditions noted are these: Mus musculus, read-out: BaF3 cells with FLT3 mutants IC50 ITD-Y842C. The procedure: as §2, §1
The subject of assay [6] is BaF3 cells with FLT3-D835Y. As to the kind of experiment: Cell viability of transformed BaF3 cells. Type of assay: cell-based, murine. The conditions noted are these: Mus musculus, read-out: BaF3 cells with FLT3 mutants IC50 D835Y. How it is done:
as §2, §1

Assay [7] deals with BaF3 cells with FLT3-ITD/D835Y. As to the kind of experiment: Cell viability of transformed BaF3 cells. The assay is classed as cell-based, murine. The procedure:
as §2, §1

Like-named read-outs stand apart in the source and are kept apart here.

T1 sequence (P28482 whole entry): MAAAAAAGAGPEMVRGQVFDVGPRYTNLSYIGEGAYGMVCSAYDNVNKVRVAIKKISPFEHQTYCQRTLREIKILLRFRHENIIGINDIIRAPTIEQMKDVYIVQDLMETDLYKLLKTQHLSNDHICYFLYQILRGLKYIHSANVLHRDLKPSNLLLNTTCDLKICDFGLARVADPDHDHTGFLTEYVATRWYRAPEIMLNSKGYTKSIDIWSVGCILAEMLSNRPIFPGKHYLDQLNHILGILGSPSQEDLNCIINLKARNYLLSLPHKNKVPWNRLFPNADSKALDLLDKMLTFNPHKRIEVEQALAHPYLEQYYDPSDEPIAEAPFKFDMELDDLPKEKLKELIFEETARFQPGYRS
T3 sequence (P07333 20-972): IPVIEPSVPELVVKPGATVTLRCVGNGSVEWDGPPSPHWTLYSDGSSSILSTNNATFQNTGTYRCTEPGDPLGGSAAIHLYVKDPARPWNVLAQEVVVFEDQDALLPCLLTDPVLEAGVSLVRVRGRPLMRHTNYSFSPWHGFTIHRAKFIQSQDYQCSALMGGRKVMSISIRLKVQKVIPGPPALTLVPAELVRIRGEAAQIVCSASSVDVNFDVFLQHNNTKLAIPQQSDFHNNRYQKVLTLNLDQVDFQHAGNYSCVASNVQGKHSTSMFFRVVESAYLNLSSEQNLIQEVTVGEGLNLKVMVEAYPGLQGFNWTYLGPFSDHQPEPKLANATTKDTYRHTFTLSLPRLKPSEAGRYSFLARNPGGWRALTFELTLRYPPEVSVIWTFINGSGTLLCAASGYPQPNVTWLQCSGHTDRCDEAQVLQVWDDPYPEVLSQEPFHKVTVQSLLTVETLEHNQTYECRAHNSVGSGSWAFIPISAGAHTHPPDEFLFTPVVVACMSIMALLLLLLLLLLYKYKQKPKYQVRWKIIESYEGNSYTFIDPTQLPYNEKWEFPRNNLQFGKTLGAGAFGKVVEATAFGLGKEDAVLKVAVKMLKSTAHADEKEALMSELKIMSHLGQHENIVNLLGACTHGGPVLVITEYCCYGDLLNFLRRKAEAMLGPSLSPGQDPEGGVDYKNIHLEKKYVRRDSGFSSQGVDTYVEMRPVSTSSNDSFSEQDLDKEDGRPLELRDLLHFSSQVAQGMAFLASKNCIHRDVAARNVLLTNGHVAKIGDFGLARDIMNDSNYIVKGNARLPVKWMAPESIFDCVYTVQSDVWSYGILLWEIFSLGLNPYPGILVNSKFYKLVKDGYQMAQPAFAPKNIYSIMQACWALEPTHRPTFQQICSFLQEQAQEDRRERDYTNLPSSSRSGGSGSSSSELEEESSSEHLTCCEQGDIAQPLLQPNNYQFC
T2 sequence (P52333 whole entry): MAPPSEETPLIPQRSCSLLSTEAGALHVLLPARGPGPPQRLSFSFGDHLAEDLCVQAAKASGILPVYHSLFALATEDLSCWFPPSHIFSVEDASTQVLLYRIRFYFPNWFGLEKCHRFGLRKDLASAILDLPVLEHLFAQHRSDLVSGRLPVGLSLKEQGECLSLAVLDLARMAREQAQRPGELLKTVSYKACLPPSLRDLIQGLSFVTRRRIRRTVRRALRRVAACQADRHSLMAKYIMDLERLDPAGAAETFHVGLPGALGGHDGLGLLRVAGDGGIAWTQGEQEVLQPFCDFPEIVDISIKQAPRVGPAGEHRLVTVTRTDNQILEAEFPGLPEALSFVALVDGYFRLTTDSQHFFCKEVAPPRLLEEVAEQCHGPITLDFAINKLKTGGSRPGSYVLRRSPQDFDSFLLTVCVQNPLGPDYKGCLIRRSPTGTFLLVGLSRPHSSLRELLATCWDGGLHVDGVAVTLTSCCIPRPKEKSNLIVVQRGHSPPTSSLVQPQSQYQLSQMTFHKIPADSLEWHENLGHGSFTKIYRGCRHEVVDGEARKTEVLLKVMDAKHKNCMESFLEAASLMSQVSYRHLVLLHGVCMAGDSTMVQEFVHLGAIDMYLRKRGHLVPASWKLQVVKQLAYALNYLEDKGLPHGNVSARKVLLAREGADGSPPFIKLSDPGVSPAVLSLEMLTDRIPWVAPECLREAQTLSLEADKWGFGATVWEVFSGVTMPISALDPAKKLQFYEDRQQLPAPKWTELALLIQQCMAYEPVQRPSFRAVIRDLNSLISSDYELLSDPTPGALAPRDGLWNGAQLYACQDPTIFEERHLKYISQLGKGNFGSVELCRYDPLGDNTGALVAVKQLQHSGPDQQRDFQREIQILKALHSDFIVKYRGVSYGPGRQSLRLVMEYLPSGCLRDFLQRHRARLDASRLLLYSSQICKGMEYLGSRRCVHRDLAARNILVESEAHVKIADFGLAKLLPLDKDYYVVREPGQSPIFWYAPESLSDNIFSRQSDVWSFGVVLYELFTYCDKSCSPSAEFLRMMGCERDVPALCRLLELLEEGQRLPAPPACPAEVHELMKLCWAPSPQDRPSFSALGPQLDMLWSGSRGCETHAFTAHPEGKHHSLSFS
T4 sequence (P35916 25-1363): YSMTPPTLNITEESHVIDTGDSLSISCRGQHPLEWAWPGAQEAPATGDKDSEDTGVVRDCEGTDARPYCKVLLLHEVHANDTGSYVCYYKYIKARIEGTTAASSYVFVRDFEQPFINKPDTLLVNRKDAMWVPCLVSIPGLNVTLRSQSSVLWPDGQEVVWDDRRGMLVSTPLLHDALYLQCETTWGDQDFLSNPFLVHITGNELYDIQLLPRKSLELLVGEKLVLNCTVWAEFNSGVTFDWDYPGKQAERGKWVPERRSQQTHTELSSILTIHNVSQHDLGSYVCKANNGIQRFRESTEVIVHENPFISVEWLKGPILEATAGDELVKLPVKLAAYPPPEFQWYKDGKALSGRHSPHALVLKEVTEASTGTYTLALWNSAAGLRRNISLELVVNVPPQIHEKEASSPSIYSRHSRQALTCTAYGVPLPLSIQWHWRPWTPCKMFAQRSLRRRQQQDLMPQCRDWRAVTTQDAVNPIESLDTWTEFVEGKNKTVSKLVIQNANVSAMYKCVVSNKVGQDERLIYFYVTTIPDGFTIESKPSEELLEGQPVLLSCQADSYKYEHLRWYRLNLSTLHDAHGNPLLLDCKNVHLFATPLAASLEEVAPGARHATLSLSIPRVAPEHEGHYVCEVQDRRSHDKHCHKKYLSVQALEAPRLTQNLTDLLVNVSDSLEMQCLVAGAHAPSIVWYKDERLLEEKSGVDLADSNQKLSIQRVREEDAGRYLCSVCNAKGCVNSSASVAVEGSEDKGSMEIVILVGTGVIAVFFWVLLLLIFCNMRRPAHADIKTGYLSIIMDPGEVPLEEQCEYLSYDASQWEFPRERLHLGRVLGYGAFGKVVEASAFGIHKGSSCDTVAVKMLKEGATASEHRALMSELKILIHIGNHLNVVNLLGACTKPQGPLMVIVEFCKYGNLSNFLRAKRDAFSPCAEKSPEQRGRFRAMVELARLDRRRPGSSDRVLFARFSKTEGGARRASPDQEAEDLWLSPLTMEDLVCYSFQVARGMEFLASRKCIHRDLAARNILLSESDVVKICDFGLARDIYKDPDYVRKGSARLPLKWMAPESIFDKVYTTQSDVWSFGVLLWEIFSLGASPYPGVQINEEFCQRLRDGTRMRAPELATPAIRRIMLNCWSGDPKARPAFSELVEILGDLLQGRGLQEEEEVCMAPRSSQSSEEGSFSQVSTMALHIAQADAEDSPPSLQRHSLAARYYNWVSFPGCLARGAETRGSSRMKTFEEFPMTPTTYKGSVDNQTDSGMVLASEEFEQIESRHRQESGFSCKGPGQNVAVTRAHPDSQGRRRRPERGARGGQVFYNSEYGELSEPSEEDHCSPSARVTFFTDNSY

In the case of `CN1CCN(Cc2ccc(NC(=O)c3n[nH]cc3Nc3ncnc4[nH]ccc34)cc2)CC1` [LT-171-861], the IC50 in the assay with U937 was 495 nM; in the assay with MOLM13, 1.3 nM; in the assay with MV4-11, 1.8 nM; in the assay on THP-1, 504 nM; at ERK2/MAPK1 (10 μM ATP, 10-dose IC50 mode, read-out: IC50 ERK2/MAPK1) it was 798 nM; on ERK2/MAPK1 (read-out: IC50 ERK2) it was more than 200 nM. The IC50 is 32.6 nM against JAK3; more than 200 nM at FMS; 247 nM against FMS (10 μM ATP, 10-dose IC50 mode); 1.24 nM against FLT4/VEGFR3; 4.1 nM with BaF3 cells with FLT3-ITD; 47.5 nM in assay [3]. Moreover, the IC50 worked out at 7.65 nM in [4]; 18.8 nM in assay [5]; 23.3 nM in assay [6]; 57.2 nM in [7] (Mus musculus, BaF3, cell viability, read-out: BaF3 cells with FLT3 mutants IC50 ITD-D835Y). Moreover, in [1], the tumor growth result is listed as “inhibited tumor growth”. The “antileukemic activity in blasts with FLT3-ITD mutations” value in assay [2] is given as “comparable antileukemic activity”. In [7] (BaF3 FLT3-ITD-D835Y), the “IC50 lower than that of sorafenib in cells bearing ITD-D835Y mutations” value is recorded as approximately 16 fold.

These data come from publication PMC7681098 (Theranostics, 2021).
